The values below come from patent US6291683A, “N-arloxyethyl-alkylamines for the treatment of depression” (American Home Products Corp, priority 2000, dated 2001).

What is called Ki is a dissociation constant, usually derived from enzyme kinetics or from competition with a known ligand. Usually Emax stands for the greatest response seen or fitted, relative to the assay's reference.

Assay [1] has as its target T1, serotonin transporter (Rattus norvegicus, UniProt P31652).
T1 construct: frontal cortical membranes prepared from male Sprague-Dawley rats; from tissue; host or cells: frontal cortex membranes, male Sprague-Dawley rats
The assay can be described thus: affinity for the serotonin transporter ([3H]-paroxetine binding, rat frontal cortical membranes). The following applies: for inhibition at 0.1 µM: @ .1 μM, read-out: ST (% Inhib. @ .1 μM). Also on record: species or system rat (male Sprague-Dawley).
Method: Briefly, frontal cortical membranes prepared from male Sprague-Dawley rats were incubated with ^3 H-paroxetine (0.1 nM) for 60 min at 25° C. […] All reactions are terminated by the addition of ice cold Tris buffer followed by rapid filtration using a Tom Tech filtration device to separate bound from free ^3 H-paroxetine.

In assay [2] the target is T2, 5-HT1A cloned receptor (Homo sapiens, UniProt P08908).
T2 construct: expressed in transfected cells
T2 sequence (P08908 1-422): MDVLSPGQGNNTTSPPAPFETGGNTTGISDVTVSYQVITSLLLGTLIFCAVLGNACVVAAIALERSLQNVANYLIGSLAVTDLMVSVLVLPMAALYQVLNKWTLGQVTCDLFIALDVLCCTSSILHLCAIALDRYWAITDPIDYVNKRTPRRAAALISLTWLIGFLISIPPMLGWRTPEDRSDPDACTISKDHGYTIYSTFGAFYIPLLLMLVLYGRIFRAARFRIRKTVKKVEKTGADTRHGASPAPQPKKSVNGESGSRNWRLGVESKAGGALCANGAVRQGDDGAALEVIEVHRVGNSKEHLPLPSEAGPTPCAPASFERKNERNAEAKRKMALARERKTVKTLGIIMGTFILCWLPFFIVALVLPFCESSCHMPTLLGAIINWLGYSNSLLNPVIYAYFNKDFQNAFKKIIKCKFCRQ
The assay can be described thus: [35S]-GTPγS binding assay, 5-HT1A cloned receptor membrane fragments. The following applies: maximum agonist response defined by excess 8-OH-DPAT. It is filed as biochemical. (In general: Binding of GTPγS marks nucleotide exchange on a G protein.)

The target in assay [3] is T3, human 5-HT1A receptor (Homo sapiens, UniProt P08908).
T3 sequence (P08908 1-422): T2 sequence (P08908 1-422)
The assay can be described thus: 5-HT1A receptor binding ([3H]8-OH-DPAT displacement, membranes of 5-HT1A.CHO cells).
Method: Cells were maintained in DMEN supplemented with 10% fetal calf serum, non-essential amino acids and penicillin/ streptomycin.
Cells were grown to 95-100% confluency as a monolayer before membranes were harvested for binding studies. Cells were gently scraped from the culture plates, transferred to centrifuge tubes, and washed twice by centrifugation (2000 rpm for 10 min., 4° C.) in buffer (50 mM Tris; pH 7.5). The resulting pellets were aliquoted and placed at -80° C. On the day of assay, the cells were thawed on ice, and resuspended in buffer. Studies were conducted using [^3 H]8-OH-DPAT as the radioligand. The binding assay was performed in 96 well microtiter plates in a final total volume of 250 μL of buffer.

[4] abbreviates: [3H]-paroxetine 0.1 nM, 60 min, 25° C.
Where [5] appears, read: read-out: 5-HT1A (Ki), [3H]8-OH-DPAT 1.5 nM, 30 min, room temperature, CHO cell membranes.

Read-outs that look alike come from different tables or passages of the source.

T1 sequence (P31652 whole entry): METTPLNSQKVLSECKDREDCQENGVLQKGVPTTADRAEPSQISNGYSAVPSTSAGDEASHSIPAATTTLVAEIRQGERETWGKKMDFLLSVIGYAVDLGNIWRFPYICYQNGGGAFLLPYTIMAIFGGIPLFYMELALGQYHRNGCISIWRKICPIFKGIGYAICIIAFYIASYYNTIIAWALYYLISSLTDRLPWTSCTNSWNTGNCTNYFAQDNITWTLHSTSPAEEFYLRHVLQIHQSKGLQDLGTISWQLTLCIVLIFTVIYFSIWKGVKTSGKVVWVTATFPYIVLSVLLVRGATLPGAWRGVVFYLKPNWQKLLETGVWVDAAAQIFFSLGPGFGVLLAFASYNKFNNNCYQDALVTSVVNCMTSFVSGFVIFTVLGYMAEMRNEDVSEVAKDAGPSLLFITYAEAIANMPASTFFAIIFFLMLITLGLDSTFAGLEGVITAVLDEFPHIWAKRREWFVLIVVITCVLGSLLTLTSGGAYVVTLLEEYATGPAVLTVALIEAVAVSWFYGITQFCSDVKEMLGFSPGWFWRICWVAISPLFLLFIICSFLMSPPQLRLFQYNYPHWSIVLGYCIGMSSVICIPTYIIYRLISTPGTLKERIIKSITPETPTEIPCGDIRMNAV

Regarding `c1cc(OCCNCCc2c[nH]c3ccccc23)c2c(c1)OCCO2` [Example 6, [2-(2,3-Dihydrobenzo[1,4]dioxin-5-yloxy)-ethyl]-[2-(1H-indol-3-yl)-ethyl]-amine], the Ki in assay [1] was 12 nM. The maximal effect (Emax) in assay [2] is 100%.
Turning to `Fc1ccc2[nH]cc(CCCNCCOc3cccc4c3CCC4)c2c1` [Example 13a, [3-(5-Fluoro-1H-indol-3-yl)-propyl]-[2-(indan-4-yloxy)-ethyl]-amine], the inhibition at 0.1 µM in assay [1] (setting [4]) amounted to 71%. Also, the affinity in assay [3] corresponds to a Ki of 76.9 nM.
On to `c1ccc(OCCNCCCc2c[nH]c3ccccc23)cc1` [Example 13d, [3-(1H-indol-3-yl)-propyl]-[2-phenoxy-ethyl]-amine], for which the inhibition at 0.1 µM in assay [1] (setting [4]) amounted to 26%.
In the case of `Fc1ccc2[nH]cc(CCCNCCOc3ccc4c(c3)CCC4)c2c1` [Example 14], the results for the inhibition constant (Ki) in assay [1] and in assay [3] were 56 nM and 158 nM, respectively.
As for `COc1ccccc1OC(C)CNCCCc1c[nH]c2ccc(F)cc12` (stereo not drawn) [Example 17, [3-(5-Fluoro-1H-indol-3-yl)-propyl]-[2-(2-methoxy-phenoxy)propyl]amine], the Ki in assay [1] (read-out: ST (Ki), [3H]-paroxetine 0.1 nM, 60 min, 25° C, Ki converted from IC50 (Cheng and Prusoff)) amounted to 16 nM; in assay [3] (setting [5]), 14.5 nM. Further, the Emax in assay [2] worked out at 97.5%.
As to “[3-(5-Fluoro-1H-indol-3-yl)-propyl]-[2-(2-methoxy-phenoxy)-2-phenyl-ethyl]- amine [Example 16]”, the Ki in assay [1] ([3H]-paroxetine 0.1 nM, 60 min, 25° C, Ki converted from IC50 (Cheng and Prusoff), read-out: ST (Ki)) was 21 nM; in assay [3] (setting [5]), 43.9 nM.
